These results are taken from ChEMBL document CHEMBL1152258, “Imidazo[5,1-f][1,2,4]triazin-2-amines as novel inhibitors of polo-like kinase 1” (Bioorg Med Chem Lett, 2008).

Data set [1] concerns the target Serine/threonine-protein kinase PLK1 (Homo sapiens, UniProt P53350). The data set can be described thus: Inhibition of PLK1 expressed in baculovirus infected Trichoplusia ni cells.
The test system of another data set is PC-3. As to the kind of experiment: Antiproliferative activity against human PC3 cells after 72 hrs. The class given is functional, cell-based. To be noted: PC-3, 72 h.
The next data set relates to NCI-H460. As to the kind of experiment: Antiproliferative activity against human H460 cells after 72 hrs. The class given is functional, cell-based. Particulars: NCI-H460, 72 h.
The next data set relates to MCF7. As to the kind of experiment: Antiproliferative activity against human MCF7 cells after 72 hrs. Type of data set: functional, cell-based. To be noted: MCF7, 72 h.
The next data set has as its system HCT-116. As to the kind of experiment: Antiproliferative activity against human HCT116 cells after 72 hrs. The class given is functional, cell-based. Particulars: HCT-116, 72 h.
The subject of a further data set is RKO. As to the kind of experiment: Antiproliferative activity against human RKO cells after 72 hrs. The class given is functional, cell-based.
The nature of data set [2]: AUC in po dosed mouse. The class given is ADME, organism-based. Particulars: plasma.
Data set [3] in a line: Oral bioavailability in mouse. Type of data set: ADME, organism-based. Particulars: in vivo.
Data set [4] is described as follows: Clearance in mouse at 5 mg/kg, iv. Type of data set: ADME, organism-based. Also noted: dose 5 mg/kg, route intravenous. Particulars: in vivo.
Data set [5] can be described thus: Volume of distribution at steady state in mouse at 5 mg/kg, iv. Type of data set: ADME, organism-based. Also noted: dose 5 mg/kg, route intravenous. Particulars: in vivo, read-out: Vdss.
Data set [6] concerns the target Serine/threonine-protein kinase PLK3 (Homo sapiens, UniProt Q9H4B4). As to the kind of experiment: Inhibition of PLK3 expressed in baculovirus infected Trichoplusia ni cells.
The nature of data set [7]: Clearance in mouse at 2.9 mg/kg, iv. Details: dose 2.9 mg/kg, route intravenous. Particulars: in vivo. The class given is ADME, organism-based.
Data set [8] is described as follows: Volume of distribution at steady state in mouse at 2.9 mg/kg, iv. To be noted: in vivo, read-out: Vdss. Also noted: dose 2.9 mg/kg, route intravenous. Type of data set: ADME, organism-based.

Sequence of Serine/threonine-protein kinase PLK1 (P53350 whole entry): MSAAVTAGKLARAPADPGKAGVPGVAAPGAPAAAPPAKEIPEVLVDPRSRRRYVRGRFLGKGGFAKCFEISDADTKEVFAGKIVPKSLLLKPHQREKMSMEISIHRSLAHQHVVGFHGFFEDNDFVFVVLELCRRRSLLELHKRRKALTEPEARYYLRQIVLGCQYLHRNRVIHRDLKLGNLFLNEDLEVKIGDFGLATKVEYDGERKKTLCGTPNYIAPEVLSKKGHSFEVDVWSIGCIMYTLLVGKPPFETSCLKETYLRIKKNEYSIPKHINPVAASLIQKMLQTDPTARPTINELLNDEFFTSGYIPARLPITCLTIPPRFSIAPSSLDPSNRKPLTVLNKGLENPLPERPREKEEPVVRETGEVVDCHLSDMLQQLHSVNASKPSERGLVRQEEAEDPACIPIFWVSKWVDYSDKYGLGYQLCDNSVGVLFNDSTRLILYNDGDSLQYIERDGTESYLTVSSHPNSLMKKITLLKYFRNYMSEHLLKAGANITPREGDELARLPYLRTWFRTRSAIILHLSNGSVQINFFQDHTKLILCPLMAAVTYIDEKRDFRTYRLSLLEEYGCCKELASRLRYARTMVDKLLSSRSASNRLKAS
Sequence of Serine/threonine-protein kinase PLK3 (Q9H4B4 whole entry): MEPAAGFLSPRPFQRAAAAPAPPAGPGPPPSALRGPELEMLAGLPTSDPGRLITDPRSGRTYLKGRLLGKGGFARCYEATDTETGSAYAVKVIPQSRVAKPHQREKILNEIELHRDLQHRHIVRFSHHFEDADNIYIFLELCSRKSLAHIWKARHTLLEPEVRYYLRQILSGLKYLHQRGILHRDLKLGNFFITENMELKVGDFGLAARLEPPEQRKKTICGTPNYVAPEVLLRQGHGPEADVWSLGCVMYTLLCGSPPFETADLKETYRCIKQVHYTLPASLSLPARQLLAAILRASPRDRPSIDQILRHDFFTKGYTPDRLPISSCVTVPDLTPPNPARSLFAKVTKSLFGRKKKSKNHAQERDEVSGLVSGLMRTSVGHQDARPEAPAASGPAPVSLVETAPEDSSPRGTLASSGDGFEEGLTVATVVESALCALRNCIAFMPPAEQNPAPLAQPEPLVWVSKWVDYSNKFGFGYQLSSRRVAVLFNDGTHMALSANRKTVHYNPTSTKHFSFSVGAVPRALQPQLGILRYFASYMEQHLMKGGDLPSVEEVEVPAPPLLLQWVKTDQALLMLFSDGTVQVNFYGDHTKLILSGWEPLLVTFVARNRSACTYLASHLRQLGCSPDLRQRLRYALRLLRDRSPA

One may read the IC50 as the concentration that gives 50% inhibition. Lower therefore signals higher potency. Regarding `COc1cc(Nc2ncc3c(C)nc(-c4ccc(F)cc4)n3n2)cc(OC)c1OC`, the IC50 in data set [1] turned out to be 0.08 µM.
For the compound `Cc1nc(-c2ccccc2)n2nc(NCCc3ccncc3)ncc12`, in data set [1], the IC50 is more than 10 µM.
The same measure, in the same setting: under `Cc1nc(-c2ccccc2)n2nc(Nc3cccc(C(F)(F)F)c3)ncc12` stands more than 10 µM; under `COc1cc(Nc2ncc3c(C)nc(-c4ccc(C(F)(F)F)cc4)n3n2)cc(OC)c1OC`, 1.06 µM; under `Cc1nc(-c2ccccc2)n2nc(Nc3ccc([N+](=O)[O-])cc3)ncc12`, 2.81 µM.
Same read-out and setting: under `Cc1nc(-c2ccccc2)n2nc(Nc3ccc(S(N)(=O)=O)cc3)ncc12` stands 2.74 µM; under `COc1ccccc1-c1nc(C)c2cnc(Nc3cc(OC)c(OC)c(OC)c3)nn12`, 5.66 µM.
Still for that read-out and setting: as for `COc1cc(Nc2ncc3c(C)nc(-c4ccccc4[N+](=O)[O-])n3n2)cc(OC)c1OC`, the figure is 1.98 µM.
`Cc1nc(-c2ccccc2)n2nc(NC3CCCCC3)ncc12`: in [1], the IC50 is more than 10 µM.
The same measure, in the same setting: under `Cc1nc(-c2ccccc2)n2nc(Nc3ccccc3)ncc12` stands 1.2 µM; under `COc1cccc(Nc2ncc3c(C)nc(-c4ccccc4)n3n2)c1`, 0.3 µM; under `COc1cc(Nc2ncc3c(C)nc(-c4ccccc4Br)n3n2)cc(OC)c1OC`, 2.67 µM.
The same measure, in the same setting: as for `Cc1nc(-c2ccccc2)n2nc(N)ncc12`, the figure is more than 10 µM; as for `Cc1nc(-c2ccccc2)n2nc(NCc3ccccc3)ncc12`, 1.5 µM; as for `COc1ccc(Nc2ncc3c(C)nc(-c4ccccc4)n3n2)cc1`, 0.68 µM.
Turning to `COc1cc(Nc2ncc3c(C)nc(-c4cccc(Br)c4)n3n2)cc(OC)c1OC`, the IC50 in [1] came out at 0.07 µM; in the data set on PC-3, 26 µM; in the data set on NCI-H460, 5.8 µM; in the data set with MCF7, 11 µM; in the data set with HCT-116, 7.8 µM; in the data set with RKO, 7.6 µM.
By AUC is commonly meant concentration integrated over time. Low values mean less exposure, high ones more exposure. In general, bioavailability refers to dose-corrected exposure relative to a reference, in per cent. In general, clearance refers to the rate of elimination divided by the concentration. In data set [2], `COc1cc(Nc2ncc3c(C)nc(-c4ccccc4)n3n2)cc(OC)c1OC` came in with an AUC of 301 ng·h/mL. The bioavailability in [3] was 10%. The compound further registered a clearance in [4] of 53 mL/min/kg. For the same compound, the IC50 in the data set with PC-3 was found to be 12 µM; with NCI-H460, 6.5 µM; in the data set with MCF7 it was 5.2 µM; in the data set with HCT-116, 5.3 µM; with RKO, 3.7 µM; in data set [6] it was 0.09 µM. In addition, the Vd in [5] worked out at 1.6 L/kg.
`Cc1nc(-c2ccccc2)n2nc(Nc3ccc(OCCN(C)C)cc3)ncc12` displayed an IC50 in data set [1] of 0.38 µM.
On the same count and under the same terms, as for `COc1ccc(Nc2ncc3c(C)nc(-c4ccccc4)n3n2)cc1OC`, the figure is 0.09 µM.
On to `COc1cc(Nc2ncc3c(C)nc(-c4cccc(C(F)(F)F)c4)n3n2)cc(OC)c1OC` [GW837331X], for which, in [2], the AUC turned out to be 264 ng·h/mL. In data set [3], this compound returned a bioavailability of 18%. Besides, the IC50 was determined as 7.8 µM with PC-3; 5.4 µM with NCI-H460; 4.8 µM in the data set with MCF7; 3.9 µM with HCT-116; 3.2 µM with RKO. In data set [7], this compound came in with a clearance of 81 mL/min/kg. The Vd in data set [8] came to 2.3 L/kg.
Compound `Cc1nc(-c2ccccc2)n2nc(NCCCN3CCOCC3)ncc12` [GW874091X] came in with an IC50 in data set [1] of more than 10 µM.
